# Test results: ChEMBL document CHEMBL1909046, “DrugMatrix in vitro pharmacology data”
# Target: T1, Alpha-1B adrenergic receptor (Rattus norvegicus, UniProt P15823)
# T1 sequence (P15823 whole entry): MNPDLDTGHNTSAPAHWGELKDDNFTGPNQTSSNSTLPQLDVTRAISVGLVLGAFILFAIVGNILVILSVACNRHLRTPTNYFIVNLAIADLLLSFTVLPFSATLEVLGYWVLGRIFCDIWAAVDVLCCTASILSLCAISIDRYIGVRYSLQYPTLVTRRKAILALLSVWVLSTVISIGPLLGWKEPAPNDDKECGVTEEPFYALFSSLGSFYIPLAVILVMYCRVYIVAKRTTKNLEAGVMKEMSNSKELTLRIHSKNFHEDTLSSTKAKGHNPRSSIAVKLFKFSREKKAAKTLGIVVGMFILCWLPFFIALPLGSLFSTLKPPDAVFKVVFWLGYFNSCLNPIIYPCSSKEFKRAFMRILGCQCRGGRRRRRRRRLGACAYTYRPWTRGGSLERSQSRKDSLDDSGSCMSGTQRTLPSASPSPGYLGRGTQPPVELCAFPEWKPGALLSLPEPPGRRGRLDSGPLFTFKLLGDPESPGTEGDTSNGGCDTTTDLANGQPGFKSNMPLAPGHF
# Test: DRUGMATRIX: Alpha-1B adrenergic receptor radioligand binding (ligand: prazosin)
# Format: cell membranes, Wistar, Liver, Membrane
# Conditions: Not Active = under 50% inhibition at 10 µM
row,SMILES,IC50
1,Nc1nc(N)nc(-c2cc(Cl)ccc2Cl)n1.O=C(O)/C=C\C(=O)O [IRSOGLADINE MALEATE],Not Active
2,Nc1ncn([C@@H]2O[C@H](CO)[C@@H](O)[C@H]2O)c(=O)n1 [AZACITIDINE],Not Active
3,CC(NC(C)(C)C)C(=O)c1cccc(Cl)c1 (stereo unspecified) [BUPROPION],Not Active
4,Cc1cc(C2CCCCC2)n(O)c(=O)c1 [CICLOPIROX],Not Active
5,CC1(C)S[C@@H]2[C@H](NC(=O)Cc3ccccc3)C(=O)N2[C@H]1C(=O)O [PENICILLIN G],Not Active
6,CCCCc1nc(Cl)c(CO)n1Cc1ccc(-c2ccccc2-c2nnn[nH]2)cc1 [LOSARTAN],Not Active
7,CCCCN1CCCC[C@H]1C(=O)Nc1c(C)cccc1C [LEVOBUPIVACAINE],Not Active
8,"Cc1onc(O)c1CC(N)C(=O)O (racemic) [(R,S)-AMPA]",Not Active
9,CC1CC(OC(=O)C(O)c2ccccc2)CC(C)(C)C1 (stereo unspecified) [CYCLANDELATE],Not Active

# Target: T2, Alpha-2A adrenergic receptor (Homo sapiens, UniProt P08913); note: in other assays of this panel Not Active means under 50% inhibition at 10 µM
# T2 sequence (P08913 whole entry): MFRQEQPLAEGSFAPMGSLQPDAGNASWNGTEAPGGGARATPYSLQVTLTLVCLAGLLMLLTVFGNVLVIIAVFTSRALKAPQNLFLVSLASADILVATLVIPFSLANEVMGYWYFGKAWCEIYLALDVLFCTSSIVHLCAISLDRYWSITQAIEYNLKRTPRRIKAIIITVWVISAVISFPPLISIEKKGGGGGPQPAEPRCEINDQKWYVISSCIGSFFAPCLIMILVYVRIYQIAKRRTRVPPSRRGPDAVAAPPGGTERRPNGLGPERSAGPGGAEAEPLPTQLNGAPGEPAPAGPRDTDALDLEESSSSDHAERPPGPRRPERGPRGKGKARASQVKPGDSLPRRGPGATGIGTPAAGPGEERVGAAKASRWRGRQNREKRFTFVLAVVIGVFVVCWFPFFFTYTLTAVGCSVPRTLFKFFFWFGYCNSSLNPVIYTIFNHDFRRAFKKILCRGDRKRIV
# Test: not given
# Format: cell membranes, Sf9, Membrane
# Conditions: sf9
row,SMILES,IC50
1,Nc1nc(N)nc(-c2cc(Cl)ccc2Cl)n1.O=C(O)/C=C\C(=O)O [IRSOGLADINE MALEATE],Not Active
2,Nc1ncn([C@@H]2O[C@H](CO)[C@@H](O)[C@H]2O)c(=O)n1 [AZACITIDINE],Not Active
3,CC(NC(C)(C)C)C(=O)c1cccc(Cl)c1 (stereo unspecified) [BUPROPION],Not Active
4,Cc1cc(C2CCCCC2)n(O)c(=O)c1 [CICLOPIROX],Not Active
5,CC1(C)S[C@@H]2[C@H](NC(=O)Cc3ccccc3)C(=O)N2[C@H]1C(=O)O [PENICILLIN G],Not Active
6,CCCCc1nc(Cl)c(CO)n1Cc1ccc(-c2ccccc2-c2nnn[nH]2)cc1 [LOSARTAN],Not Active
7,CCCCN1CCCC[C@H]1C(=O)Nc1c(C)cccc1C [LEVOBUPIVACAINE],Not Active
8,"Cc1onc(O)c1CC(N)C(=O)O (racemic) [(R,S)-AMPA]",Not Active
9,CC1CC(OC(=O)C(O)c2ccccc2)CC(C)(C)C1 (stereo unspecified) [CYCLANDELATE],Not Active

# Target: Beta-2 adrenergic receptor (Homo sapiens, UniProt P07550)
# Sequence (P07550 whole entry): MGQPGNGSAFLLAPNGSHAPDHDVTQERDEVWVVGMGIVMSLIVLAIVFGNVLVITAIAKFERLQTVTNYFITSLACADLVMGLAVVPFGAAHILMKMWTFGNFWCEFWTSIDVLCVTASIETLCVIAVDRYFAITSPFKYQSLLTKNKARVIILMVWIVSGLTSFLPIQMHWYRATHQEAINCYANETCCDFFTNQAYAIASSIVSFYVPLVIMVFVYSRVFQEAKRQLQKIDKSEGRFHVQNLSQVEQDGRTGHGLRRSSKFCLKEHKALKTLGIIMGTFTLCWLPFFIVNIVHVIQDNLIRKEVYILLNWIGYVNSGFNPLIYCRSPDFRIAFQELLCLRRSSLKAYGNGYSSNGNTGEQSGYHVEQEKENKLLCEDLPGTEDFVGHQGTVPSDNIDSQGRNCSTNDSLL
# Test: DRUGMATRIX: Adrenergic beta2 radioligand binding (ligand: [3H] CGP-12177)
# Format: cell membranes, Membrane
# Conditions: cho; Not Active = under 50% inhibition at 10 µM
row,SMILES,IC50
1,Nc1nc(N)nc(-c2cc(Cl)ccc2Cl)n1.O=C(O)/C=C\C(=O)O [IRSOGLADINE MALEATE],Not Active
2,Nc1ncn([C@@H]2O[C@H](CO)[C@@H](O)[C@H]2O)c(=O)n1 [AZACITIDINE],Not Active
3,CC(NC(C)(C)C)C(=O)c1cccc(Cl)c1 (stereo unspecified) [BUPROPION],Not Active
4,Cc1cc(C2CCCCC2)n(O)c(=O)c1 [CICLOPIROX],Not Active
5,CC1(C)S[C@@H]2[C@H](NC(=O)Cc3ccccc3)C(=O)N2[C@H]1C(=O)O [PENICILLIN G],Not Active
6,CCCCc1nc(Cl)c(CO)n1Cc1ccc(-c2ccccc2-c2nnn[nH]2)cc1 [LOSARTAN],Not Active
7,CCCCN1CCCC[C@H]1C(=O)Nc1c(C)cccc1C [LEVOBUPIVACAINE],Not Active
8,"Cc1onc(O)c1CC(N)C(=O)O (racemic) [(R,S)-AMPA]",Not Active
9,CC1CC(OC(=O)C(O)c2ccccc2)CC(C)(C)C1 (stereo unspecified) [CYCLANDELATE],Not Active

# Target: T3, Thromboxane-A synthase (Homo sapiens, UniProt P24557);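 note: enzyme inhibition assay with PGH2 supplied as substrate; in other assays of this panel Not Active means under 50% inhibition at 10 µM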
# T3 sequence (P24557 whole entry): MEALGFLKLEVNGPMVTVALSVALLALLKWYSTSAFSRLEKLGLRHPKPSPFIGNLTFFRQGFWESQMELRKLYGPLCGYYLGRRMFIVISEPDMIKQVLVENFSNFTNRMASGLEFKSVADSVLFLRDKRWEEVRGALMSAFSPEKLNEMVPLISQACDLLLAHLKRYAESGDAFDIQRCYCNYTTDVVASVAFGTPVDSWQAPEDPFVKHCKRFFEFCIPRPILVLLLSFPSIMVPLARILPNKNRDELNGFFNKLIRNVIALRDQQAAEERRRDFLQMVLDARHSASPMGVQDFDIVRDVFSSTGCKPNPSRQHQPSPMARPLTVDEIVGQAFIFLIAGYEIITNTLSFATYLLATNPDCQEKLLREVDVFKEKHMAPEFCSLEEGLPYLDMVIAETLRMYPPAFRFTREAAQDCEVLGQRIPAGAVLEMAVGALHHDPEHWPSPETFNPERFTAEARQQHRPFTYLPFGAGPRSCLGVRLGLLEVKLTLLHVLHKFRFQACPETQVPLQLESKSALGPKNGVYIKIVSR
# Test: biochemical
# Format: tissue-based, Platelet
# Conditions: platelet
row,SMILES,IC50
1,Nc1nc(N)nc(-c2cc(Cl)ccc2Cl)n1.O=C(O)/C=C\C(=O)O [IRSOGLADINE MALEATE],Not Active
2,Nc1ncn([C@@H]2O[C@H](CO)[C@@H](O)[C@H]2O)c(=O)n1 [AZACITIDINE],Not Active
3,CC(NC(C)(C)C)C(=O)c1cccc(Cl)c1 (stereo unspecified) [BUPROPION],Not Active
4,Cc1cc(C2CCCCC2)n(O)c(=O)c1 [CICLOPIROX],Not Active
5,CC1(C)S[C@@H]2[C@H](NC(=O)Cc3ccccc3)C(=O)N2[C@H]1C(=O)O [PENICILLIN G],Not Active
6,CCCCc1nc(Cl)c(CO)n1Cc1ccc(-c2ccccc2-c2nnn[nH]2)cc1 [LOSARTAN],Not Active
7,CCCCN1CCCC[C@H]1C(=O)Nc1c(C)cccc1C [LEVOBUPIVACAINE],Not Active
8,"Cc1onc(O)c1CC(N)C(=O)O (racemic) [(R,S)-AMPA]",Not Active
9,CC1CC(OC(=O)C(O)c2ccccc2)CC(C)(C)C1 (stereo unspecified) [CYCLANDELATE],Not Active

# Test system: not listed separately
# Test: DRUGMATRIX: Phosphodiesterase PDE3 enzyme inhibition (substrate: [3H]cAMP + cAMP)
# Format: tissue-based, Homo sapiens
# Conditions: platelet; Not Active = under 50% inhibition at 10 µM
SMILES,IC50,Ki
Nc1nc(N)nc(-c2cc(Cl)ccc2Cl)n1.O=C(O)/C=C\C(=O)O [IRSOGLADINE MALEATE],Not Active,Not Active
Nc1ncn([C@@H]2O[C@H](CO)[C@@H](O)[C@H]2O)c(=O)n1 [AZACITIDINE],Not Active,Not Active
CC(NC(C)(C)C)C(=O)c1cccc(Cl)c1 (stereo unspecified) [BUPROPION],Not Active,Not Active
Cc1cc(C2CCCCC2)n(O)c(=O)c1 [CICLOPIROX],Not Active,Not Active
CC1(C)S[C@@H]2[C@H](NC(=O)Cc3ccccc3)C(=O)N2[C@H]1C(=O)O [PENICILLIN G],Not Active,Not Active
CCCCc1nc(Cl)c(CO)n1Cc1ccc(-c2ccccc2-c2nnn[nH]2)cc1 [LOSARTAN],Not Active,Not Active
CCCCN1CCCC[C@H]1C(=O)Nc1c(C)cccc1C [LEVOBUPIVACAINE],Not Active,Not Active
"Cc1onc(O)c1CC(N)C(=O)O (racemic) [(R,S)-AMPA]",Not Active,Not Active
CC1CC(OC(=O)C(O)c2ccccc2)CC(C)(C)C1 (stereo unspecified) [CYCLANDELATE],Not Active,Not Active

# Test system: not listed separately
# Test: DRUGMATRIX: Purinergic P2X radioligand binding (ligand: [3H] alpha, beta-Methylene-ATP)
# Format: cell membranes, Oryctolagus cuniculus, New Zealand albino, Urinary bladder, Membrane
# Conditions: Not Active = under 50% inhibition at 10 µM
SMILES,IC50,Ki
Nc1nc(N)nc(-c2cc(Cl)ccc2Cl)n1.O=C(O)/C=C\C(=O)O [IRSOGLADINE MALEATE],Not Active,Not Active
Nc1ncn([C@@H]2O[C@H](CO)[C@@H](O)[C@H]2O)c(=O)n1 [AZACITIDINE],Not Active,Not Active
CC(NC(C)(C)C)C(=O)c1cccc(Cl)c1 (stereo unspecified) [BUPROPION],Not Active,Not Active
Cc1cc(C2CCCCC2)n(O)c(=O)c1 [CICLOPIROX],Not Active,Not Active
CC1(C)S[C@@H]2[C@H](NC(=O)Cc3ccccc3)C(=O)N2[C@H]1C(=O)O [PENICILLIN G],Not Active,Not Active
CCCCc1nc(Cl)c(CO)n1Cc1ccc(-c2ccccc2-c2nnn[nH]2)cc1 [LOSARTAN],Not Active,Not Active
CCCCN1CCCC[C@H]1C(=O)Nc1c(C)cccc1C [LEVOBUPIVACAINE],Not Active,Not Active
"Cc1onc(O)c1CC(N)C(=O)O (racemic) [(R,S)-AMPA]",Not Active,Not Active
CC1CC(OC(=O)C(O)c2ccccc2)CC(C)(C)C1 (stereo unspecified) [CYCLANDELATE],Not Active,Not Active

# Target: Adenosine receptor A2a (Homo sapiens, UniProt P29274)
# Sequence (P29274 whole entry): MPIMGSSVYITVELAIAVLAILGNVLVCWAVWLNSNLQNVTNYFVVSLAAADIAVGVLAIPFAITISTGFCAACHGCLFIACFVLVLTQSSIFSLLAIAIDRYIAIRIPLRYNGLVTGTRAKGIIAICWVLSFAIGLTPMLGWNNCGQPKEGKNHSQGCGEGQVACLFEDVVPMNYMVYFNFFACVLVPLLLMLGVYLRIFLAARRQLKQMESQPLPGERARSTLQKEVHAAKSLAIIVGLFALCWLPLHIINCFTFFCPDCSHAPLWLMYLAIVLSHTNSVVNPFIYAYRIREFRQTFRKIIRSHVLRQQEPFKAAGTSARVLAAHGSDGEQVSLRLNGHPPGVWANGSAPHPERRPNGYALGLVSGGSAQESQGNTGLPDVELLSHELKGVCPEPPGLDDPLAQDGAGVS
# Test: DRUGMATRIX: Adenosine A2A radioligand binding (ligand: […])
# Format: cell membranes, Membrane
# Conditions: hek293; Not Active = under 50% inhibition at 10 µM
row,SMILES,IC50
1,Nc1nc(N)nc(-c2cc(Cl)ccc2Cl)n1.O=C(O)/C=C\C(=O)O [IRSOGLADINE MALEATE],Not Active
2,Nc1ncn([C@@H]2O[C@H](CO)[C@@H](O)[C@H]2O)c(=O)n1 [AZACITIDINE],Not Active
3,CC(NC(C)(C)C)C(=O)c1cccc(Cl)c1 (stereo unspecified) [BUPROPION],Not Active
4,Cc1cc(C2CCCCC2)n(O)c(=O)c1 [CICLOPIROX],Not Active
5,CC1(C)S[C@@H]2[C@H](NC(=O)Cc3ccccc3)C(=O)N2[C@H]1C(=O)O [PENICILLIN G],Not Active
6,CCCCc1nc(Cl)c(CO)n1Cc1ccc(-c2ccccc2-c2nnn[nH]2)cc1 [LOSARTAN],Not Active
7,CCCCN1CCCC[C@H]1C(=O)Nc1c(C)cccc1C [LEVOBUPIVACAINE],Not Active
8,"Cc1onc(O)c1CC(N)C(=O)O (racemic) [(R,S)-AMPA]",Not Active
9,CC1CC(OC(=O)C(O)c2ccccc2)CC(C)(C)C1 (stereo unspecified) [CYCLANDELATE],Not Active
